Measured values reported in patent US11919885B1, “4-(4-bromophenyl)-2-alkyloxy-6-(2-oxo-2H-1-benzopyran-3-yl)pyridine-3-carbonitrile as antimicrobial compounds” (KING FAISAL UNIVERSITY, priority 2023, dated 2024).

Columns and labels:
Type in all cases: cell-based
Aspergillus flavus = experiment: Agar plate disc-diffusion, antifungal activity (inhibition zone); details: Sabouraud's dextrose agar, 37° C., 72 h, DMSO control zone subtracted; for inhibition zone, Aspergillus flavus, A: A = concentration of comp. = 10,000 μL; for inhibition zone, Aspergillus flavus, B: B = concentration of comp. = 30.000 μL; for inhibition zone, Aspergillus flavus, C: C = concentration of comp. = 50,000 μL
Experimental: (§1) The agar plate disc-diffusion method was applied. Sterilized filter papers (6 mm in diameter) were wetted with 10 μL of a solution of 4-(4-Bromophenyl)-2-ethoxy-6-(2-oxo-2H-1-benzopyran-3-yl)-4-phenylpyridine-3-carbonitrile (1) or 4-(4-Bromophenyl)-2-methoxy-6-(2-oxo-2H-1-benzopyran-3-yl)-4-phenylpyridine-3-carbonitrile (2) to be tested, containing […], and the discs were allowed to air dry. The discs were then placed onto the surface of agar plates (nutrient agar for bacteria and Sabouraud's dextrose agar for fungi) seeded with the test organism. Each plate contained 15 mL of the agar medium, previously seeded with 0.2 mL of the broth culture of each organism pregrown for 18 hours. The plates were incubated at 37° C. for 48 h, and 72 h for fungi. The inhibition zones were measured in mm. Discs impregnated with DMSO were used as a control, and its inhibition zone was subtracted from the tested compound actual inhibition zone.
(§2) The results of the antimicrobial testing can be observed in Tables 1 and 2, below, using ciprofloxacin as a reference.

[1] = system: Chrysosporium keratinophilum; experiment: as above; details: Sabouraud's dextrose agar, 37° C., 72 h, DMSO control zone subtracted; for inhibition zone, Chrysosporium keratinophilum, A: A = concentration of comp. = 10,000 μL; for inhibition zone, Chrysosporium keratinophilum, B: B = concentration of comp. = 30.000 μL; for inhibition zone, Chrysosporium keratinophilum, C: C = concentration of comp. = 50,000 μL
Experimental: as §1, §2

Escherichia coli = experiment: Agar plate disc-diffusion, antibacterial activity (inhibition zone); details: nutrient agar, 37° C., 48 h, DMSO control zone subtracted; for inhibition zone, Escherichia coli, A: A = concentration of comp. = 10,000 μL; for inhibition zone, Escherichia coli, B: B = concentration of comp. = 30.000 μL; for inhibition zone, Escherichia coli, C: C = concentration of comp. = 50,000 μL
Experimental: as §1, §2

Staphylococcus aureus = experiment: as above; details: nutrient agar, 37° C., 48 h, DMSO control zone subtracted; for inhibition zone, Staphylococcus aureus, A: A = concentration of comp. = 10,000 μL; for inhibition zone, Staphylococcus aureus, B: B = concentration of comp. = 30.000 μL; for inhibition zone, Staphylococcus aureus, C: C = concentration of comp. = 50,000 μL
Experimental: as §1, §2

Pseudomonas aeruginosa = experiment: as above; details: nutrient agar, 37° C., 48 h, DMSO control zone subtracted; for inhibition zone, Pseudomonas aeruginosa, A: A = concentration of comp. = 10,000 μL; for inhibition zone, Pseudomonas aeruginosa, B: B = concentration of comp. = 30.000 μL; for inhibition zone, Pseudomonas aeruginosa, C: C = concentration of comp. = 50,000 μL
Experimental: as §1, §2

Bacillus cereus = experiment: as above; details: nutrient agar, 37° C., 48 h, DMSO control zone subtracted; for inhibition zone, Bacillus Cereus, A: A = concentration of comp. = 10,000 μL; for inhibition zone, Bacillus Cereus, B: B = concentration of comp. = 30.000 μL; for inhibition zone, Bacillus Cereus, C: C = concentration of comp. = 50,000 μL
Experimental: as §1, §2

Structure (SMILES) | inhibition zone, Aspergillus flavus, A (Aspergillus flavus) | inhibition zone, Aspergillus flavus, B (Aspergillus flavus) | inhibition zone, Aspergillus flavus, C (Aspergillus flavus) | inhibition zone, Chrysosporium keratinophilum, A [1] | inhibition zone, Chrysosporium keratinophilum, B [1] | inhibition zone, Chrysosporium keratinophilum, C [1] | inhibition zone, Escherichia coli, A (Escherichia coli) | inhibition zone, Escherichia coli, B (Escherichia coli) | inhibition zone, Escherichia coli, C (Escherichia coli) | inhibition zone, Staphylococcus aureus, A (Staphylococcus aureus) | inhibition zone, Staphylococcus aureus, B (Staphylococcus aureus) | inhibition zone, Staphylococcus aureus, C (Staphylococcus aureus) | inhibition zone, Pseudomonas aeruginosa, A (Pseudomonas aeruginosa) | inhibition zone, Pseudomonas aeruginosa, B (Pseudomonas aeruginosa) | inhibition zone, Pseudomonas aeruginosa, C (Pseudomonas aeruginosa) | inhibition zone, Bacillus Cereus, A (Bacillus cereus) | inhibition zone, Bacillus Cereus, B (Bacillus cereus) | inhibition zone, Bacillus Cereus, C (Bacillus cereus)
CCOc1nc(-c2cc3ccccc3oc2=O)cc(-c2ccc(Br)cc2)c1C#N [Compound 1, 4-(4-Bromophenyl)-2-ethoxy-6-(2-oxo-2H-1-benzopyran-3-yl)pyridine-3-carbonitrile] | 28 mm | 30 mm | 41 mm | 24 mm | 29 mm | 42 mm | 30 mm | 40 mm | 50 mm | 20 mm | 25 mm | 35 mm | 25 mm | 30 mm | 39 mm | 30 mm | 34 mm | 40 mm
O=C(O)c1cn(C2CC2)c2cc(N3CCNCC3)c(F)cc2c1=O [Cip., ciprofloxacin, reference compound] | 29 mm | 30 mm | 42 mm | 29 mm | 30 mm | 53 mm | 30 mm | 39 mm | 60 mm | 43 mm | 44 mm | 53 mm | 29 mm | 30 mm | 53 mm | 29 mm | 30 mm | 42 mm
COc1nc(-c2cc3ccccc3oc2=O)cc(-c2ccc(Br)cc2)c1C#N [Compound 2, 4-(4-Bromophenyl)-2-methoxy-6-(2-oxo-2H-1-benzopyran-3-yl)pyridine-3-carbonitrile] | 20 mm | 21 mm | 31 mm | 25 mm | 28 mm | 40 mm | 29 mm | 37 mm | 48 mm | 15 mm | 22 mm | 30 mm | 27 mm | 33 mm | 40 mm | 25 mm | 32 mm | 37 mm
